pIC50: −log10 of the molar value.
Biological target: Acidic mammalian chitinase (Homo sapiens, UniProt Q9BZP6)
Assay: Inhibition of His-tagged recombinant human acidic mammalian chitinase expressed in Escherichia coli Rosetta-gami 2 (DE3) using 4MU-(GlcNAc)2 as substrate assessed as production of 4-methylumbelliferone measured every 5 mins by fluorescence assay

Acidic mammalian chitinase, sequence (Q9BZP6 whole entry): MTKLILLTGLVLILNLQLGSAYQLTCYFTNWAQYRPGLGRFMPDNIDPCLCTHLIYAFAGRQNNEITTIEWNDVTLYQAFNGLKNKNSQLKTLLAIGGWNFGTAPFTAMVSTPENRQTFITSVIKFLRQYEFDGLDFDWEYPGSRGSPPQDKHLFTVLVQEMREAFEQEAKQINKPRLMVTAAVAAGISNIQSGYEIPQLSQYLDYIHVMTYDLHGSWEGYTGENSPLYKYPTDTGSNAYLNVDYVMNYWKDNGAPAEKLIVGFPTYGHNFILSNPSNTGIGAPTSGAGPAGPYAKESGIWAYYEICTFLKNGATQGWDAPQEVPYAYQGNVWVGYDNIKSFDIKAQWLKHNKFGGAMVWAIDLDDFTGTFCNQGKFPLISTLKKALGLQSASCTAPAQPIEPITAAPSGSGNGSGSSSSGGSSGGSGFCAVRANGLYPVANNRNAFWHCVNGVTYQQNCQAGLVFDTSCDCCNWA

pIC50: 4.52
SMILES: CN=C(S)NNC(=O)c1oc2nc(-c3ccccc3)cc(C)c2c1N

Source: ChEMBL document CHEMBL2412962, “Human acidic mammalian chitinase as a novel target for anti-asthma drug design using in silico screening” (Bioorg Med Chem, 2013)
